Source: PubChem BioAssay AID248 (DTP/NCI, 2004)
“And” between values parts separate entries of the source, which are not always exact repeats. Identical values can stand only once. Inconclusive results and toxic doses are left out. No stated cut-off is given here; in the data, active means T/C of 150% or more; inactive means T/C below 125%.

Tested on: L1210 leukemia ip in BDF1 mice, survival T/C
Test: NCI In Vivo Anticancer Drug Screen. Data for tumor model L1210 Leukemia (intraperitoneal) in B6D2F1 (BDF1) mice
Conditions: endpoint: mean survival time, higher = longer survival
Outline: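 Tumor cells were implanted, animals were treated, and survival was followed. The result divides the treated measurement by the vehicle-control measurement.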

[1] = dose: 100.0 mg/kg/injection, schedule: Q01DX009 (ip), vehicle: Klucel (hydroxypropylcellulose) (HPC)
[2] = dose: 100.0 mg/kg/injection, schedule: Q04DX002 (ip), vehicle: Klucel (hydroxypropylcellulose) (HPC)
[3] = dose: 200.0 mg/kg/injection, schedule: Q01DX009 (ip), vehicle: Klucel (hydroxypropylcellulose) (HPC)
[4] = dose: 200.0 mg/kg/injection, schedule: Q04DX002 (ip), vehicle: Klucel (hydroxypropylcellulose) (HPC)
[5] = dose: 400.0 mg/kg/injection, schedule: Q01DX009 (ip), vehicle: Klucel (hydroxypropylcellulose) (HPC)
[6] = dose: 400.0 mg/kg/injection, schedule: Q04DX002 (ip), vehicle: Klucel (hydroxypropylcellulose) (HPC)
[7] = dose: 100.0 mg/kg/injection, schedule: Q01DX001 (ip), vehicle: saline
[8] = dose: 200.0 mg/kg/injection, schedule: Q01DX001 (ip), vehicle: saline
[9] = dose: 400.0 mg/kg/injection, schedule: Q01DX001 (ip), vehicle: saline
[10] = dose: 25.0 mg/kg/injection, schedule: Q01DX009 (ip), vehicle: Klucel (hydroxypropylcellulose) (HPC)
[11] = dose: 50.0 mg/kg/injection, schedule: Q01DX009 (ip), vehicle: Klucel (hydroxypropylcellulose) (HPC)
[12] = dose: 100.0 mg/kg/injection, schedule: Q04DX003 (ip), vehicle: Klucel (hydroxypropylcellulose) (HPC)
[13] = dose: 100.0 mg/kg/injection, schedule: Q01DX001 (ip), vehicle: Klucel (hydroxypropylcellulose) (HPC)
[14] = dose: 200.0 mg/kg/injection, schedule: Q01DX001 (ip), vehicle: Klucel (hydroxypropylcellulose) (HPC)
[15] = dose: 200.0 mg/kg/injection, schedule: Q04DX003 (ip), vehicle: Klucel (hydroxypropylcellulose) (HPC)
[16] = dose: 400.0 mg/kg/injection, schedule: Q01DX001 (ip), vehicle: Klucel (hydroxypropylcellulose) (HPC)
[17] = dose: 400.0 mg/kg/injection, schedule: Q04DX003 (ip), vehicle: Klucel (hydroxypropylcellulose) (HPC)

Measured: T/C

CCOC(=O)CC(CC(=O)OCC)NC(=O)c1ccc(N(C)C=O)cc1
inactive: dose: 100.0 mg/kg/injection, schedule: Q01DX001 (ip), vehicle: other 100 % of control | dose: 200.0 mg/kg/injection, schedule: Q01DX001 (ip), vehicle: other 102 % of control | dose: 400.0 mg/kg/injection, schedule: Q01DX001 (ip), vehicle: other 97 % of control

Cc1ccccc1NC(=O)Nc1ccc(S(N)(=O)=O)cc1
inactive: [1] 104 % of control | [2] 86 % of control | [3] 101 % of control | [4] 93 % of control | [5] 112 % of control | [6] 86 % of control

Cc1ccc(-c2c([N+](=O)[O-])ccc(Cl)c2[N+](=O)[O-])cc1
inactive: dose: 50.0 mg/kg/injection, schedule: Q01DX001 (ip), vehicle: carboxymethylcellulose (CMC) 102 % of control | dose: 100.0 mg/kg/injection, schedule: Q01DX001 (ip), vehicle: carboxymethylcellulose (CMC) 105 % of control | dose: 200.0 mg/kg/injection, schedule: Q01DX001 (ip), vehicle: carboxymethylcellulose (CMC) 102 % of control | dose: 400.0 mg/kg/injection, schedule: Q01DX001 (ip), vehicle: carboxymethylcellulose (CMC) 100 % of control

CCCCCCCC1CCCCC1
inactive: dose: 50.0 mg/kg/injection, schedule: Q01DX001 (ip), vehicle: saline 101 % of control | [7] 98 % of control | [8] 101 % of control | [9] 98 % of control

CN(C)/N=C/c1ccc(N(C)C)cc1
inactive: [10] 100 % of control | dose: 25.0 mg/kg/injection, schedule: Q04DX003 (ip), vehicle: Klucel (hydroxypropylcellulose) (HPC) 101 % of control | [11] 112 % of control | dose: 50.0 mg/kg/injection, schedule: Q04DX003 (ip), vehicle: Klucel (hydroxypropylcellulose) (HPC) 96 % of control | [12] 111 % of control

CCC(C)(O)C#N (centres undefined)
inactive: dose: 2.2 mg/kg/injection, schedule: Q01DX Z (ip), vehicle: saline 104 % of control | dose: 3.3 mg/kg/injection, schedule: Q01DX Z (ip), vehicle: saline 94 % of control | dose: 5.0 mg/kg/injection, schedule: Q01DX Z (ip), vehicle: saline 98 % of control

COc1ccc(/C=C(\C#N)c2ccc([N+](=O)[O-])cc2)cc1OC
inactive: dose: 100.0 mg/kg/injection, schedule: Q04DX002 (ip), vehicle: saline with Tween-80 90 % of control | dose: 200.0 mg/kg/injection, schedule: Q04DX002 (ip), vehicle: saline with Tween-80 90 % of control | dose: 400.0 mg/kg/injection, schedule: Q04DX002 (ip), vehicle: saline with Tween-80 90 % of control

[Br][Hg][CH2]COC[CH2][Hg][Br]
inactive: dose: 6.25 mg/kg/injection, schedule: Q01DX009 (ip), vehicle: Klucel (hydroxypropylcellulose) (HPC) 103 % of control | dose: 12.5 mg/kg/injection, schedule: Q01DX009 (ip), vehicle: Klucel (hydroxypropylcellulose) (HPC) 93 % of control | [10] 112 % of control

CC1C=CC=CC=C1
inactive: [13] 98 % of control | [12] 102 % of control | [14] 90 % of control | [15] 93 % of control | [16] 92 % of control | [17] 86 % of control

Cc1ncc(CO)c(COCCC(C)C)c1O
inactive: dose: 100.0 mg/kg/injection, schedule: Q04DX002 (ip), vehicle: saline 95 % of control | dose: 200.0 mg/kg/injection, schedule: Q04DX002 (ip), vehicle: saline 98 % of control

O=C(Nc1ccc(F)c([N+](=O)[O-])c1)NC(Cc1ccccc1)c1ccccc1 (centres undefined)
inactive: [1] 98 % of control | [3] 101 % of control | [5] 104 % of control

OCC1OC(c2[nH]nc3c(Cl)ncnc23)C(O)C1O (centres undefined)
inactive: dose: 100.0 mg/kg/injection, schedule: Q01DX005 (ip), vehicle: saline 108 % of control | dose: 200.0 mg/kg/injection, schedule: Q01DX005 (ip), vehicle: saline 120 % of control

O=C1NC(=O)C(c2ccccc2Cl)N1 (centres undefined)
inactive: [13] 109 % of control | [12] 102 % of control | [14] 118 % of control | [15] 100 % of control | [16] 103 % of control | [17] 98 % of control

Cc1cc(OC(=O)Nc2ccccc2C)ccc1Cl
inactive: [2] 111 % of control | [4] 103 % of control | [6] 118 % of control

O=C(Cl)C(Cl)(Cl)Cl
inactive: dose: 100.0 mg/kg/injection, schedule: Q04DX002 (sc), vehicle: olive oil, sesame oil, peanut oil 103 % of control | dose: 200.0 mg/kg/injection, schedule: Q04DX002 (sc), vehicle: olive oil, sesame oil, peanut oil 116 % of control | dose: 400.0 mg/kg/injection, schedule: Q04DX002 (sc), vehicle: olive oil, sesame oil, peanut oil 100 % of control

CCC([N+](=O)[O-])S(=O)(=O)c1ccc(C)cc1 (centres undefined)
inactive: [7] 98 % of control | dose: 100.0 mg/kg/injection, schedule: Q01DX009 (ip), vehicle: saline 98 % of control | dose: 100.0 mg/kg/injection, schedule: Q04DX003 (ip), vehicle: saline 102 % of control | [8] 95 % of control | dose: 200.0 mg/kg/injection, schedule: Q01DX009 (ip), vehicle: saline 94 % of control and 95 % of control | dose: 200.0 mg/kg/injection, schedule: Q04DX003 (ip), vehicle: saline 100 % of control | [9] 93 % of control | dose: 400.0 mg/kg/injection, schedule: Q01DX009 (ip), vehicle: saline 93 % of control and 103 % of control | dose: 400.0 mg/kg/injection, schedule: Q04DX003 (ip), vehicle: saline 94 % of control

CSc1nc(C)c(Br)c(Sc2nc(N)nc3nc[nH]c23)n1
inactive: dose: 100.0 mg/kg/injection, schedule: Q01DX Z (ip), vehicle: methylcellulose (MC) 87 % of control

COc1ccc2c(c1)c(-n1cc([N+](=O)[O-])nc1C)c(C)n2C(=O)c1ccc(Cl)cc1
inactive: [11] 97 % of control | [1] 97 % of control | [3] 93 % of control
